Source: ChEMBL document CHEMBL1201862, “PubChem BioAssay data set” (2004)
Active and inactive are the calls of the source.

How the values were obtained:
Estrogen receptor = target: T1, Estrogen receptor (Homo sapiens, UniProt P03372);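 also: potency for inhibiting coactivator peptide recruitment to the receptor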
T1 sequence (P03372 whole entry): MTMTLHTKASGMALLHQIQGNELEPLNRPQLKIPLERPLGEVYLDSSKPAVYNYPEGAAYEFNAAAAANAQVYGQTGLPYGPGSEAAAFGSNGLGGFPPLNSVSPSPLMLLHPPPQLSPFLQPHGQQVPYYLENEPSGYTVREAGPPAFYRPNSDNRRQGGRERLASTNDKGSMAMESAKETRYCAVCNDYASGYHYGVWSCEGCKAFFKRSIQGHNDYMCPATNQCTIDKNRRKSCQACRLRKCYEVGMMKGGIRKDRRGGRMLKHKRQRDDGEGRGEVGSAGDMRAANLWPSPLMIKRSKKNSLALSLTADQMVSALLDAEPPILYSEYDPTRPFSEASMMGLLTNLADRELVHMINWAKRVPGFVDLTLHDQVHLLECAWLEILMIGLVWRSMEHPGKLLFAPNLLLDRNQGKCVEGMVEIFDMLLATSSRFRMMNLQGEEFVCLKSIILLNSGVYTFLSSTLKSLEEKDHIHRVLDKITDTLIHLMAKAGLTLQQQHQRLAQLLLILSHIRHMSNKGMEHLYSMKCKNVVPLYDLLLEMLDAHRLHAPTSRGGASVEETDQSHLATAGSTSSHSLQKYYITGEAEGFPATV

[1] = target: Intestinal-type alkaline phosphatase (Mus musculus, UniProt P24822); test: PubChem AID 488785; assay type: functional
Chain of Intestinal-type alkaline phosphatase (Mus musculus, UniProt P24822) (P24822 whole entry): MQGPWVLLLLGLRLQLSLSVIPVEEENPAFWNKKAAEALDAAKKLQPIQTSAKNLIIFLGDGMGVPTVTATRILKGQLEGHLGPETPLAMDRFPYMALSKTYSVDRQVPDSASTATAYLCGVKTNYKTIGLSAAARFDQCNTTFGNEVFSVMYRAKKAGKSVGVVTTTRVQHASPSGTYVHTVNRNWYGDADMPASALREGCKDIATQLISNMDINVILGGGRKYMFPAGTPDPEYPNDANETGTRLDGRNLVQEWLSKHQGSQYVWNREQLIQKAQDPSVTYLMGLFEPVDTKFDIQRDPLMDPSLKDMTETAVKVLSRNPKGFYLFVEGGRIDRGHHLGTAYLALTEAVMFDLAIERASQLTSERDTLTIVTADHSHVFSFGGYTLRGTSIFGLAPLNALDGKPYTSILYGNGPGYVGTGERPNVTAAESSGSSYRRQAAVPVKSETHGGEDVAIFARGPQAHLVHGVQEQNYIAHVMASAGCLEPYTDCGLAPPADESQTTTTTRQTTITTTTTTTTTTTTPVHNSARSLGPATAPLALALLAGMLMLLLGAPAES

[2] = target: Intestinal-type alkaline phosphatase (Homo sapiens, UniProt P09923); test: inhibition of human intestinal alkaline phosphatase – biochemical, dose response (AID 488876); assay type: functional
Chain of Intestinal-type alkaline phosphatase (Homo sapiens, UniProt P09923) (P09923 whole entry): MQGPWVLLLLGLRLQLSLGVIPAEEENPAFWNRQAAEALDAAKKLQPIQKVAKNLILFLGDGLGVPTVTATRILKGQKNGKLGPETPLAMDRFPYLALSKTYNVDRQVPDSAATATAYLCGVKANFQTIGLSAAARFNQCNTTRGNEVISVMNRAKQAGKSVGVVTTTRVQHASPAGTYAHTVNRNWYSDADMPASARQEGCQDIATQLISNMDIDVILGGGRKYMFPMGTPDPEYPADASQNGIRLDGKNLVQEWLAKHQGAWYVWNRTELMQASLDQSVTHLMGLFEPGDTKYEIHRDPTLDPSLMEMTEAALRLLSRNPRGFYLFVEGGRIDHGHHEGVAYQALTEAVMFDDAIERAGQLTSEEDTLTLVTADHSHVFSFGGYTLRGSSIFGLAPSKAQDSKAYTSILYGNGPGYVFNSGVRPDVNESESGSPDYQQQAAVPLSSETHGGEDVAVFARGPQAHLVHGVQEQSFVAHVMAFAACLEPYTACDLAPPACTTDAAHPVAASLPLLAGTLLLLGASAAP

[3] = target: T2, Alkaline phosphatase, tissue-nonspecific isozyme (Homo sapiens, UniProt P05186); test: TNAP enzyme inhibition by screening hits, dose response, selectivity assay for mouse IAP inhibitor project, biochemical, human TNAP, uHTS hits (AID 488906); assay type: functional
T2 sequence (P05186 whole entry): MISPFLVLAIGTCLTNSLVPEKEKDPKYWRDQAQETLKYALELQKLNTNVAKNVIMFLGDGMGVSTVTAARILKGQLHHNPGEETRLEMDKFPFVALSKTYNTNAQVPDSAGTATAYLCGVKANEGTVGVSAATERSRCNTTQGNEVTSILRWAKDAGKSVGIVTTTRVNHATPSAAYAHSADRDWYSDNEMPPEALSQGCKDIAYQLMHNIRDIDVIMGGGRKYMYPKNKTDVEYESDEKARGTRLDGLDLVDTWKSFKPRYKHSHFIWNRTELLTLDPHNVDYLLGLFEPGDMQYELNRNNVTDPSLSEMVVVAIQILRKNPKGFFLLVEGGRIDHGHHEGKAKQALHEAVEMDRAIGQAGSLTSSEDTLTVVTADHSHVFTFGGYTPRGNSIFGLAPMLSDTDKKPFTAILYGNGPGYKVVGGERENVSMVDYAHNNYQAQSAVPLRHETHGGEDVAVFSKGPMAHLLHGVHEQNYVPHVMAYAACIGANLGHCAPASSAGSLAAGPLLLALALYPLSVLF

Estrogen receptor beta [4] = target: T3, Estrogen receptor beta (Homo sapiens, UniProt Q92731);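 also: recombinant ER-beta bound to coactivator SRC1 peptide in presence of estradiol agonist; inhibitors block coactivator peptide binding and lower the FRET signal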
T3 sequence (Q92731 whole entry): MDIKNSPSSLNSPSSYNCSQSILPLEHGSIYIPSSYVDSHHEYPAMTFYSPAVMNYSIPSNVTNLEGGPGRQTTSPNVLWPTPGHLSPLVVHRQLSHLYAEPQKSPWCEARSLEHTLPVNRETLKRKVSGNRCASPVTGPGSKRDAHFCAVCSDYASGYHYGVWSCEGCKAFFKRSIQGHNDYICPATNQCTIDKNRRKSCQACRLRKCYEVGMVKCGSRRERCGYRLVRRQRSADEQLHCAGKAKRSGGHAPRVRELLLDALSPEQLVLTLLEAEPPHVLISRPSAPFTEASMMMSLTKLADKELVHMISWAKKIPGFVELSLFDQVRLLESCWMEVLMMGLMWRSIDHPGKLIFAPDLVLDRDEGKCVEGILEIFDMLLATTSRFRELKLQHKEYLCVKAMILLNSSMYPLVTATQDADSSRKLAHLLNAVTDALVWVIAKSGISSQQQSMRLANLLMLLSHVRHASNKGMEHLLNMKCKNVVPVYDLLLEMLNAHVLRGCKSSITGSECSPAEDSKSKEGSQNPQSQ

Estrogen receptor beta [5] = target: T3, Estrogen receptor beta; test: ERβ–SRC-3 coactivator interaction inhibitors, confirmation, orthogonal assay, biochemical, ELISA, streptavidin-HRP readout (AID 1060)
Bcl-2-related protein A1 = target: T4, Bcl-2-related protein A1 (Mus musculus, UniProt Q07440); assay type: functional;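 also: confirmatory dose–response counterscreen on Bfl-1, used to check hits from a UBC13 polyubiquitin inhibitor campaign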
T4 sequence (Q07440 whole entry): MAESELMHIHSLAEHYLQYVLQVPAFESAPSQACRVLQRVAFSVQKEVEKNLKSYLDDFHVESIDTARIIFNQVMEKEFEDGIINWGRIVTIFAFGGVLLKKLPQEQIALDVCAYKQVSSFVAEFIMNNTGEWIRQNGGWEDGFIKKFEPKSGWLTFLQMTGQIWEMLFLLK

Large T antigen = Large T antigen (Simian virus 40, UniProt P03070); assay type: functional, Betapolyomavirus macacae;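 also: Confirmatory-stage PubChem screen for compounds that inhibit SV40 T antigen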
[6] = target: T5, Dual specificity protein phosphatase 6 (Rattus norvegicus, UniProt Q64346); test: MKP-3 phosphatase inhibitors, primary screen, biochemical, rat enzyme, in vitro (AID 425)
T5 sequence (Q64346 whole entry): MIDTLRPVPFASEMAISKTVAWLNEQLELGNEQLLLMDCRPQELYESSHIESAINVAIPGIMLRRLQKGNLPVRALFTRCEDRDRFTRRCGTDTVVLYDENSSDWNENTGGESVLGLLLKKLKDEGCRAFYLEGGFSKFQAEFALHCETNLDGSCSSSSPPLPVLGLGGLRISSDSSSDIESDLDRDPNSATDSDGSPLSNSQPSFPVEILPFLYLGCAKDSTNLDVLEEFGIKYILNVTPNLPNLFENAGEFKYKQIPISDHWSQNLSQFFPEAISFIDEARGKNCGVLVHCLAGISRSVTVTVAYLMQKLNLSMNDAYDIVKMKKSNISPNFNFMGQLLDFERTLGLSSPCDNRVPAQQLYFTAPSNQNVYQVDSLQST

Bcl-2-like protein 1 = Bcl-2-like protein 1 (Homo sapiens, UniProt Q07817); test: BCL-XL inhibitors, dose response, selectivity assay for MCL1 inhibitor project, biochemical, fluorescence polarization, 1536-well (AID 2218)
Chain of Bcl-2-like protein 1 (Q07817 whole entry): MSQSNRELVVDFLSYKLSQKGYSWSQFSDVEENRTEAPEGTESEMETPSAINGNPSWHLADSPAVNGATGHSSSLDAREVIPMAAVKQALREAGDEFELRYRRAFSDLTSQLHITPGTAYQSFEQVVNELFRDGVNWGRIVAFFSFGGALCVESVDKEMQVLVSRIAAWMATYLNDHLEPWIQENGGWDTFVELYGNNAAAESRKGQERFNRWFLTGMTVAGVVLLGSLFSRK

[7] = target: T6, Ubiquitin-conjugating enzyme E2 N (Homo sapiens, UniProt P61088); assay type: functional
T6 sequence (P61088 whole entry): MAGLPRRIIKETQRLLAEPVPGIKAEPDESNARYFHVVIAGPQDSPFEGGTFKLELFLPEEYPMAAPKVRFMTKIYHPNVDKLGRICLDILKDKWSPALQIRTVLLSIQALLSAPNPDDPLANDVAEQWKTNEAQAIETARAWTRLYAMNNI

[8] = target: T6, Ubiquitin-conjugating enzyme E2 N; assay type: functional; remark: listed apart in the source
[9] = target: T7, Histone-lysine N-methyltransferase NSD2 (Homo sapiens, UniProt O96028); assay type: biochemical
T7 sequence (O96028 whole entry): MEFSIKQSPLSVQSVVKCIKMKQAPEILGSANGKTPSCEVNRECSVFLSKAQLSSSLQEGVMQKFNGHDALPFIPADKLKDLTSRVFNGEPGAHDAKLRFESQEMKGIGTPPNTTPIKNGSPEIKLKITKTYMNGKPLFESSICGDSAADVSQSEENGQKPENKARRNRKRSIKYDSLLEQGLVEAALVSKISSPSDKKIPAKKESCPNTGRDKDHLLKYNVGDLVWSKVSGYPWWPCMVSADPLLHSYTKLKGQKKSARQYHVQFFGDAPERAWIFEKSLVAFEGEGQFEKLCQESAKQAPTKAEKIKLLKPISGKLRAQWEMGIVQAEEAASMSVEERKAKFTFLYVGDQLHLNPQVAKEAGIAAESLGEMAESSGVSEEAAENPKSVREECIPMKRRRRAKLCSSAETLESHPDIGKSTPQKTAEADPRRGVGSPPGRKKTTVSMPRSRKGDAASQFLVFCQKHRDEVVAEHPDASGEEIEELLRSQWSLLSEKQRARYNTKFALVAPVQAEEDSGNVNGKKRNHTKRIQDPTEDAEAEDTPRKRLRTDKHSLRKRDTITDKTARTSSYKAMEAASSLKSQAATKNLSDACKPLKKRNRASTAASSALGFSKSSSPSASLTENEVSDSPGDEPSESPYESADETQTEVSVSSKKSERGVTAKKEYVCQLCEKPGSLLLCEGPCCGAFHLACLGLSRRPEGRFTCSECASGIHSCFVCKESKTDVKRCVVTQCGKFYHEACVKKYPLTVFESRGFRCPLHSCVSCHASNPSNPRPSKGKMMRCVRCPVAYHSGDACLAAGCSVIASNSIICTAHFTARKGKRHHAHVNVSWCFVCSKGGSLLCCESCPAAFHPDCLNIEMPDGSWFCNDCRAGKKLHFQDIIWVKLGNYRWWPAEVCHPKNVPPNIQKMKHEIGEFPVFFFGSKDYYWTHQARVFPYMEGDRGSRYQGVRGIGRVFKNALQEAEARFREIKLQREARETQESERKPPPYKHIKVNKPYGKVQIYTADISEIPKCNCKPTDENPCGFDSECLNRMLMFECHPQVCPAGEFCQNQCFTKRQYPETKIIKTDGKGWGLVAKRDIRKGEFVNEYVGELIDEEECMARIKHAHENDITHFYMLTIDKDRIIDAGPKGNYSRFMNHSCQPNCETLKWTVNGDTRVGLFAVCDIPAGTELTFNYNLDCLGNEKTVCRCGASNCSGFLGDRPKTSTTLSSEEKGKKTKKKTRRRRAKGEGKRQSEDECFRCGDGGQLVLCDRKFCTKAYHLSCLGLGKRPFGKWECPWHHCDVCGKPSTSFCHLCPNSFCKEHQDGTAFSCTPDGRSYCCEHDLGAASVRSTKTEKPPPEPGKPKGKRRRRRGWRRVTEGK

[10] = target: Induced myeloid leukemia cell differentiation protein Mcl-1 (Homo sapiens, UniProt Q07820); test: MCL1-BIM BH3 interaction inhibitors, dose response, biochemical, fluorescence polarization, BIM-BH3 peptide, 1536-well (AID 2217)
Chain of Induced myeloid leukemia cell differentiation protein Mcl-1 (Q07820 whole entry, the tested form may be a part): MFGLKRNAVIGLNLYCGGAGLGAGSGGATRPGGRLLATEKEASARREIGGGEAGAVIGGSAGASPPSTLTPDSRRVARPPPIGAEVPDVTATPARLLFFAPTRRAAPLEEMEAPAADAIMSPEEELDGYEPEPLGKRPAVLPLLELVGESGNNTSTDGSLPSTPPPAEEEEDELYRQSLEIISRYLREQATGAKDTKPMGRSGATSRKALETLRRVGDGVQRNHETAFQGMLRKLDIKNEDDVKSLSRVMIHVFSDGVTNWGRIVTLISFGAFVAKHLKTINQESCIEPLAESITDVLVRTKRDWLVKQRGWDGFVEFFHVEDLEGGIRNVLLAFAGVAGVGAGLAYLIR

[11] = target: T8, Carboxy-terminal domain RNA polymerase II polypeptide A small phosphatase 1 (Homo sapiens, UniProt Q9GZU7); test: inhibitors of CTDSP1, concentration-response testing, biochemical assay, absorbance-based, actives from ultra-high-throughput screening (AID 540297); assay type: functional
T8 sequence (Q9GZU7 whole entry): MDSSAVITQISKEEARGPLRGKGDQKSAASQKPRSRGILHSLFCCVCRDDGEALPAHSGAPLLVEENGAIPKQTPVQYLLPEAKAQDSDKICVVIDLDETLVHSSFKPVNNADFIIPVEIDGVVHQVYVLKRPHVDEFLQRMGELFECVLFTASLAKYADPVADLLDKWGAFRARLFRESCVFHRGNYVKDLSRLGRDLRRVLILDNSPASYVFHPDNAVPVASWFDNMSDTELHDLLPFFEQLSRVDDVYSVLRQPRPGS

Leucine aminopeptidase = Leucine aminopeptidase (Plasmodium falciparum 3D7, UniProt Q8IL11); test: P. falciparum M17LAP inhibitors, primary screen, biochemical, fluorogenic H-Leu-NHMec substrate, 1536-well (AID 1619); assay type: functional
Chain of Leucine aminopeptidase (Q8IL11 whole entry): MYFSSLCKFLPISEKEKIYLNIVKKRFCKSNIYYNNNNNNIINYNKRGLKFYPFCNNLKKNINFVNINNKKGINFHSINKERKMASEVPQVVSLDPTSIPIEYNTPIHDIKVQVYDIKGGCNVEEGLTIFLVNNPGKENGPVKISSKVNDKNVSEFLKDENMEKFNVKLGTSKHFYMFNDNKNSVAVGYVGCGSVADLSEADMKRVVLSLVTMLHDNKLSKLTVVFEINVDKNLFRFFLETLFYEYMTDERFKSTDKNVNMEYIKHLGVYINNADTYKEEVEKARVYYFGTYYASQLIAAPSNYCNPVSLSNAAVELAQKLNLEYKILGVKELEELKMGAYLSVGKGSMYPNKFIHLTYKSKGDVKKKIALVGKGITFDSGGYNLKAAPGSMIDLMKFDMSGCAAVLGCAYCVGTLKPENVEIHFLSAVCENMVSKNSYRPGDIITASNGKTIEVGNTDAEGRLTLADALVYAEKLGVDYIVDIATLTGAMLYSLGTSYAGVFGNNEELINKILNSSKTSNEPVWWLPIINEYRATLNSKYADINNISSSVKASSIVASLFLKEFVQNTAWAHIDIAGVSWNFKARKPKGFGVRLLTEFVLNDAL

[12] = target: Glucose-6-phosphate 1-dehydrogenase (Homo sapiens, UniProt P11413); test: human G6PD enzyme inhibitors, dose response, selectivity assay for P. falciparum G6PD inhibitor project, biochemical, fluorescence (AID 504792); assay type: functional
Chain of Glucose-6-phosphate 1-dehydrogenase (P11413 whole entry): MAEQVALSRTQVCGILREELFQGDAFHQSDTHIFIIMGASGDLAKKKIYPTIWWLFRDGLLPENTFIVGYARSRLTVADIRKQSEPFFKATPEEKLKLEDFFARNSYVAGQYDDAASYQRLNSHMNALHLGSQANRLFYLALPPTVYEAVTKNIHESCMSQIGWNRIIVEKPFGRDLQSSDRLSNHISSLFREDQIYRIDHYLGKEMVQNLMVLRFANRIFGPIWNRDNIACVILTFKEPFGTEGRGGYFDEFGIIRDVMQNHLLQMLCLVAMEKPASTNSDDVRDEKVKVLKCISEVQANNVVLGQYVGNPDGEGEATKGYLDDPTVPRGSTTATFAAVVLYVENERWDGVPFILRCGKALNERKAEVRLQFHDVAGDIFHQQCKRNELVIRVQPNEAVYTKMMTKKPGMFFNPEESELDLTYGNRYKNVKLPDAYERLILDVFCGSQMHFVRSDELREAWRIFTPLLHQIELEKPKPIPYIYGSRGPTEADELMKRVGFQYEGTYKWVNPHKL

Albumin = Albumin (Bos taurus, UniProt P02769); test: Counterscreen for inhibitors of T-cell receptor (TCR)-CD3 interaction: Fluorescence-based biochemical high throughput dose response assay to identify inhibitors of T-cell receptor (TCR)-CD3 interaction using a TAMRA-labeled BSA probe.; assay type: functional
Chain of Albumin (P02769 whole entry): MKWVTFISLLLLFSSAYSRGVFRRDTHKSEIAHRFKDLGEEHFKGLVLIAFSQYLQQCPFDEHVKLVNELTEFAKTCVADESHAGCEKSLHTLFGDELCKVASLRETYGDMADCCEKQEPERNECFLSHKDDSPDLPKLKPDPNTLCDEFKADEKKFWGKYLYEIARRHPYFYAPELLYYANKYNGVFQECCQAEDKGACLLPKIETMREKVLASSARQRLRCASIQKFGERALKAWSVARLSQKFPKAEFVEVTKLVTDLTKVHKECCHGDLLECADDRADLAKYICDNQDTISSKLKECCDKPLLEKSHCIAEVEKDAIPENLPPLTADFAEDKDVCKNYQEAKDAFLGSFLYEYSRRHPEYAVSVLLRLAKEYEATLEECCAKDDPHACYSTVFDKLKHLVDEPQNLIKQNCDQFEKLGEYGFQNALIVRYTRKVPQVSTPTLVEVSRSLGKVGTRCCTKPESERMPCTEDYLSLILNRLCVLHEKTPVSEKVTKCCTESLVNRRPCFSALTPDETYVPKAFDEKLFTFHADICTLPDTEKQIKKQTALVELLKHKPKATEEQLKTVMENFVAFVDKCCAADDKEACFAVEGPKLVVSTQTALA

[13] = target: T9, Mannose-6-phosphate isomerase (Homo sapiens, UniProt P34949); test: human PMI inhibitors, high substrate, primary screen, biochemical, fluorescence intensity, high mannose 6-phosphate (AID 1220)
T9 sequence (P34949 whole entry): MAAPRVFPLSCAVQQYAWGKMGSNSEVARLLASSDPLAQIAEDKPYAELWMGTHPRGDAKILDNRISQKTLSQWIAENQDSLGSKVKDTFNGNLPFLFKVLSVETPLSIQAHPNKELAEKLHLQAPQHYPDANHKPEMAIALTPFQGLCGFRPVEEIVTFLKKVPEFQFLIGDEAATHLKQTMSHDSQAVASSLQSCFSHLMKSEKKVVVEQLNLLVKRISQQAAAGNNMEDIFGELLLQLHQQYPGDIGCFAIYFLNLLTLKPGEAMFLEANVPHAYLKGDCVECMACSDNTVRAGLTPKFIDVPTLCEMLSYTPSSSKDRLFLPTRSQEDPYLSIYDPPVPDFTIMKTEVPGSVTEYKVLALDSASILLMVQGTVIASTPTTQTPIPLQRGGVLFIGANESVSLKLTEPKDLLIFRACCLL

Genome polyprotein = Genome polyprotein (dengue virus type 2, UniProt P29990); test: Dengue-2 NS5 methyltransferase inhibitors, primary screen, biochemical, confirmation dose response (AID 588689); assay type: functional
Chain of Genome polyprotein (P29990 2492-3391 limits assumed): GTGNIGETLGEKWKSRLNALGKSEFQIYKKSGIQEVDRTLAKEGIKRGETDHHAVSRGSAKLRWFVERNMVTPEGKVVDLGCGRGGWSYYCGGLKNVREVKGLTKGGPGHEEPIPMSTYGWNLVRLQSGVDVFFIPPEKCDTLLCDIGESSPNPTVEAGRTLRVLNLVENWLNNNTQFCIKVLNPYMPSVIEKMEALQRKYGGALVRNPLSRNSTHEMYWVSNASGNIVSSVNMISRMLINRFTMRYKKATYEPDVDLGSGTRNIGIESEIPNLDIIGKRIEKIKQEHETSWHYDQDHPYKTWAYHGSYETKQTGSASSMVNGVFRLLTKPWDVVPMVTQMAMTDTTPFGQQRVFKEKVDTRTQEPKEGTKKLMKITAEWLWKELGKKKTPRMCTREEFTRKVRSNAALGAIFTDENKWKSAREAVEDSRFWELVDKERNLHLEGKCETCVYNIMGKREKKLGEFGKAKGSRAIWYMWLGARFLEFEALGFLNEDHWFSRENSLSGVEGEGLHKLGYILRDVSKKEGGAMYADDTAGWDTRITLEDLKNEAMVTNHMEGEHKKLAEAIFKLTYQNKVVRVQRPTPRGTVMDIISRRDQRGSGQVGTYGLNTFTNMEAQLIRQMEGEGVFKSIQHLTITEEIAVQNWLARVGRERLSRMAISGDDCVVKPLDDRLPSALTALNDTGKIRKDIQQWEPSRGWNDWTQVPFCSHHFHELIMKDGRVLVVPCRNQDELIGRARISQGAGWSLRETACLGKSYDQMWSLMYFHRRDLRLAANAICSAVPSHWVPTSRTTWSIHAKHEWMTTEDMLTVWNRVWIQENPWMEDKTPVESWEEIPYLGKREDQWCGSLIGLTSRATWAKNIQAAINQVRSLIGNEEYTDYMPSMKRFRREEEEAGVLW

CN(c1ccccc1C(=O)O)S(=O)(=O)c1ccc2c3c(cccc13)C(=O)N2
IC50 (Estrogen receptor): 18.7 µM (active)
IC50 [1]: 11.3 µM (active)
IC50 [2]: > 100 µM (inactive)
IC50 [3]: > 100 µM (inactive)
IC50 (Estrogen receptor beta [4]): 3.85 µM (active)
IC50 (Estrogen receptor beta [5]): 6.16 µM (not active)

c1coc(-c2nc(-c3ccco3)c(-c3ccco3)nc2-c2ccco2)c1
IC50 (Bcl-2-related protein A1): 0.36 µM (active)
IC50 (Large T antigen): 76.4 µM (active)
IC50 [6]: > 10 µM (not active)
IC50 (Bcl-2-like protein 1): > 109 µM (not active)
IC50 [7]: 8.49 µM (active)
IC50 [8]: 3.79 µM (active)
AC50 [9]: > 20 µM (inactive)
IC50 (Estrogen receptor beta [5]): > 50 µM (not active)
IC50 [10]: > 1.34 µM (active)

CC1CCN(S(=O)(=O)c2ccc(NC(=O)Cc3cccs3)cc2)CC1
IC50 (Estrogen receptor): 9.49 µM (active)
IC50 [11]: 3.87 µM (active)
IC50 (Estrogen receptor beta [4]): 5.52 µM (active)
IC50 (Estrogen receptor beta [5]): 0.127 µM (not active)

CCCCc1ccc(C(=O)NC(C(=O)O)C(C)C)cc1 (stereo unspecified)
IC50 (Leucine aminopeptidase): 4.71 µM (active)

O=C(CCc1ccc(S(=O)(=O)N2CCOCC2)cc1)N/N=C/c1ccc(O)c(O)c1O
IC50 [12]: 48.7 µM (inactive)
IC50 (Albumin): > 94.1 µM (inactive)
IC50 [13]: 16.4 µM (active)
IC50 (Bcl-2-like protein 1): > 109 µM (not active)
IC50 (Genome polyprotein): 51.3 µM (active)
IC50 [10]: 2.33 µM (active)
